ChEMBL document CHEMBL4376845, “Design, Synthesis, and Biological Evaluation of MEK PROTACs” (J Med Chem, 2020)
Active and inactive are the calls of the source. The rule behind the calls is not given here.

What was measured:
[1] = target: T1, von Hippel-Lindau disease tumor suppressor/Dual specificity mitogen-activated protein kinase kinase 2/Dual specificity mitogen-activated protein kinase kinase 1 (Homo sapiens) (UniProt P36507+Q02750+P40337); experiment: Protac activity at VHL/MEK in human A375 cells assessed as MEK1 degradation at 10 uM incubated for 2 hrs in presence of ploy(I:C) stimulation by Surefire assay; type: cell-based
[2] = target: T1, von Hippel-Lindau disease tumor suppressor/Dual specificity mitogen-activated protein kinase kinase 2/Dual specificity mitogen-activated protein kinase kinase 1 (Homo sapiens); experiment: Protac activity at VHL/MEK in human A375 cells assessed as reduction in IL6 secretion at 10 uM incubated for 12 hrs followed by poly(I:C) treatment and measured after 4 hrs by AlphaLISA assay; type: cell-based
[3] = target: T1, von Hippel-Lindau disease tumor suppressor/Dual specificity mitogen-activated protein kinase kinase 2/Dual specificity mitogen-activated protein kinase kinase 1 (Homo sapiens); experiment: Protac activity at VHL/MEK in human A375 cells assessed as reduction in ERK1/2 phosphorylation at 10 uM incubated for 2 hrs in presence of poly(I:C) stimulation by Surefire assay; type: cell-based
A-375 [4] = experiment: Antiproliferative activity against human A375 cells assessed as growth inhibition at 10 uM measured up to 72 hrs by IncuCyte zoom live cell analysis; type: functional, cell-based
[5] = target: T1, von Hippel-Lindau disease tumor suppressor/Dual specificity mitogen-activated protein kinase kinase 2/Dual specificity mitogen-activated protein kinase kinase 1 (Homo sapiens); experiment: Protac activity at VHL/MEK in human A375 cells assessed as reduction in ERK1/2 phosphorylation at 10 uM incubated for >=8 hrs in presence of poly(I:C) stimulation by Surefire assay relative to control; type: cell-based
[6] = target: T2, Dual specificity mitogen-activated protein kinase kinase 1 (Homo sapiens, UniProt Q02750); experiment: Inhibition of MEK1 (unknown origin) incubated for 60 mins in presence of ATP by Kinase Glo luminescence assay
[7] = target: T1, von Hippel-Lindau disease tumor suppressor/Dual specificity mitogen-activated protein kinase kinase 2/Dual specificity mitogen-activated protein kinase kinase 1 (Homo sapiens); experiment: Protac activity at VHL/MEK in human A375 cells assessed as maximal MEK1 degradation at 10 uM incubated for 8 hrs in presence of ploy(I:C) stimulation by Surefire assay; type: cell-based
[8] = target: T1, von Hippel-Lindau disease tumor suppressor/Dual specificity mitogen-activated protein kinase kinase 2/Dual specificity mitogen-activated protein kinase kinase 1 (Homo sapiens); experiment: Protac activity at VHL/MEK in human A375 cells assessed as […] at <10 uM incubated for 12 hrs followed by poly(I:C) treatment and measured after 4 hrs by Surefire assay; type: cell-based
[9] = target: T1, von Hippel-Lindau disease tumor suppressor/Dual specificity mitogen-activated protein kinase kinase 2/Dual specificity mitogen-activated protein kinase kinase 1 (Homo sapiens); experiment: Protac activity at VHL/MEK in human A375 cells assessed as MEK1 degradation at 1 uM incubated for 16 hrs in presence of poly(I:C) stimulation by Surefire assay relative to control; type: cell-based
[10] = target: T1, von Hippel-Lindau disease tumor suppressor/Dual specificity mitogen-activated protein kinase kinase 2/Dual specificity mitogen-activated protein kinase kinase 1 (Homo sapiens); experiment: Protac activity at VHL/MEK in human A375 cells assessed as MEK1 degradation at 10 uM incubated for 16 hrs in presence of poly(I:C) stimulation by Surefire assay relative to control; type: cell-based
[11] = target: T1, von Hippel-Lindau disease tumor suppressor/Dual specificity mitogen-activated protein kinase kinase 2/Dual specificity mitogen-activated protein kinase kinase 1 (Homo sapiens); experiment: Protac activity at VHL/MEK in human A375 cells assessed as MEK1 degradation at 10 uM incubated for 16 hrs in presence of poly(I:C) stimulation by immunoblotting analysis; type: cell-based
[12] = target: T1, von Hippel-Lindau disease tumor suppressor/Dual specificity mitogen-activated protein kinase kinase 2/Dual specificity mitogen-activated protein kinase kinase 1 (Homo sapiens); experiment: Protac activity at VHL/MEK in human A375 cells assessed as MEK2 degradation at 10 uM incubated for 16 hrs in presence of poly(I:C) stimulation by immunoblotting analysis; type: cell-based
[13] = target: T1, von Hippel-Lindau disease tumor suppressor/Dual specificity mitogen-activated protein kinase kinase 2/Dual specificity mitogen-activated protein kinase kinase 1 (Homo sapiens); experiment: Protac activity at VHL/MEK in human A375 cells assessed as MEK1 degradation at 1 to 10 uM incubated for 12 hrs followed by poly(I:C) treatment and measured after 4 hrs by Surefire assay; type: cell-based
A-375 [14] = experiment: Antiproliferative activity against human A375 cells assessed as reduction in cell viability; type: functional, cell-based
A-375 [15] = experiment: Reduction in MEK1 protein level in human A375 cells at 100 pM to 10 uM incubated for 12 hrs followed by poly(I:C) treatment and measured after 4 hrs by Surefire assay relative to untreated control; type: functional
[16] = target: T2, Dual specificity mitogen-activated protein kinase kinase 1; experiment: Inhibition of MEK1 in human A375 cells assessed as inhibition of ERK1/2 phosphorylation at 1 to 10 uM incubated for 12 hrs followed by poly(I:C) treatment and measured after 4 hrs by Surefire assay; type: cell-based
[17] = target: T1, von Hippel-Lindau disease tumor suppressor/Dual specificity mitogen-activated protein kinase kinase 2/Dual specificity mitogen-activated protein kinase kinase 1 (Homo sapiens); experiment: Protac activity at VHL/MEK in human A375 cells assessed as MEK1 degradation at 10 uM incubated up to 8 hrs in presence of poly(I:C) stimulation by Surefire assay; type: cell-based
[18] = Lipophilicity, log D of compound; type: physicochemical; details: octanol/water
[19] = target: T2, Dual specificity mitogen-activated protein kinase kinase 1; experiment: Inhibition of MEK1 in human A375 cells assessed as reduction in ERK1/2 phosphorylation at 10 uM incubated for 1 to 16 hrs in presence of poly(I:C) stimulation by Surefire assay; type: cell-based
A-375 [20] = experiment: Reduction in MEK1 protein expression in human A375 cells at 10 uM incubated for 16 hrs in presence of poly(I:C) stimulation by Surefire assay; type: functional, cell-based
[21] = target: T2, Dual specificity mitogen-activated protein kinase kinase 1; experiment: Inhibition of MEK1 in human A375 cells assessed as reduction in IL6 secretion at 1 to 10 uM incubated for 12 hrs followed by poly(I:C) treatment and measured after 4 hrs by AlphaLISA assay; type: cell-based
[22] = Aqueous solubility of the compound in buffer at pH 7.4; type: physicochemical

T2 sequence (Q02750 whole entry): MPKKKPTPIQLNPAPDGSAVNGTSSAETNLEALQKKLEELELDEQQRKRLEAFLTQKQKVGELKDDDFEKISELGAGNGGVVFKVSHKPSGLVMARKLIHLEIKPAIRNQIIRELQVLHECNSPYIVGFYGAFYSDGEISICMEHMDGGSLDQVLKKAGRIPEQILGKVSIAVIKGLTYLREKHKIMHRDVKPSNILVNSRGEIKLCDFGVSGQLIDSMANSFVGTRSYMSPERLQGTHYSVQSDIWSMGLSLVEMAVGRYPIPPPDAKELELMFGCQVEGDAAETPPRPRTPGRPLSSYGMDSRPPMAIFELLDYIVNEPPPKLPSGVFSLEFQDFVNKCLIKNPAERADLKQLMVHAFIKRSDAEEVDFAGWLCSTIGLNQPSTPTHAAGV
T1 sequence (P36507 whole entry, looked up): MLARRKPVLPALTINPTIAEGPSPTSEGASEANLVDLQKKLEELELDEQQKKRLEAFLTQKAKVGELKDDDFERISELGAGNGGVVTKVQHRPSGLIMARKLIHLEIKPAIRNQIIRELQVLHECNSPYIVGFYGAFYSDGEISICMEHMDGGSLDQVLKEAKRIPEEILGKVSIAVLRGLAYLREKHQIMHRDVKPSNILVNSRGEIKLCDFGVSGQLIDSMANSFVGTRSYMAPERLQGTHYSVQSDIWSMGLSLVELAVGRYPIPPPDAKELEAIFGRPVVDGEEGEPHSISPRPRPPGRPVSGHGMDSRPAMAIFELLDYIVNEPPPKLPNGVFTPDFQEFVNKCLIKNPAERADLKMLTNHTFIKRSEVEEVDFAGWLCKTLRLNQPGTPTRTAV
T1 sequence (P40337 whole entry, looked up): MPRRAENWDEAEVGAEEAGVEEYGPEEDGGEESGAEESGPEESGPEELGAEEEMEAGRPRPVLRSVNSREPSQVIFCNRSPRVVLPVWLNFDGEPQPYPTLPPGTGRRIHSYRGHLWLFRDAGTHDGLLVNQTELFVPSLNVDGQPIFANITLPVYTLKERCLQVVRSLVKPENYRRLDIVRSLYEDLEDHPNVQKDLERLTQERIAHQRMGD
T1 sequence (Q02750 whole entry, looked up): as the sequence (Q02750 whole entry) above

SMILES | Activity [1] | Activity [2] | Activity [3] | inhibition [5] [%] | IC50 [6] [nM] | Activity [7] | Activity [8] | Activity [9] [%] | Activity [10] [%] | Activity [11] | Activity [12] | Activity [13] | IC50 (A-375 [14]) [nM] | logD [18] | growth inhibition (GI) (A-375 [4]) | further results
Cc1ncsc1-c1ccc([C@H](C)NC(=O)[C@@H]2C[C@@H](O)CN2C(=O)[C@@H](NC(=O)COCCOCCOCCNC(=O)COc2ccc(S(=O)(=O)Nc3cc(C)c(=O)n(C)c3Nc3ccc(I)cc3F)cc2)C(C)(C)C)cc1 | Active | Active | Active | 100 | 158 | Active | Active | 72 | 95 | Active | Active | Active | – | – | Active | –
Cc1ncsc1-c1ccc([C@H](C)NC(=O)[C@@H]2C[C@@H](O)CN2C(=O)[C@@H](NC(=O)COCCOCCOCCNC(=O)CCc2ccc(S(=O)(=O)Nc3cc(C)c(=O)n(C)c3Nc3ccc(I)cc3F)cc2)C(C)(C)C)cc1 | Active | Active | Active | 100 | 100 | Active | Active | 90 | 94 | Active | Active | Active | – | – | Active | –
O=C(c1ccc(F)c(F)c1Nc1ccc(I)cc1F)N1CC(O)([C@@H]2CCCCN2)C1 [COBIMETINIB] | – | – | – | – | – | – | – | – | – | – | – | – | 5 | – | – | –
Cc1ncsc1-c1ccc([C@H](C)NC(=O)[C@@H]2C[C@@H](O)CN2C(=O)[C@@H](NC(=O)COCCOCCOCCOCCNC(=O)CCc2ccc(S(=O)(=O)Nc3cc(C)c(=O)n(C)c3Nc3ccc(I)cc3F)cc2)C(C)(C)C)cc1 | Active | Active | Active | 100 | 100 | Active | Active | 91 | 96 | Active | Active | Active | – | 4.3 | Active | solubility [22]: < 1.5 µM

Further lines, with some results ahead:

Activity [1] | Activity [2] | Activity [3] | inhibition [5] [%] | IC50 [6] [nM] | Activity [7] | Activity [8] | Activity [9] [%] | Activity [10] [%] | Activity [11] | Activity [12] | Activity [13] | IC50 (A-375 [14]) [nM] | logD [18] | SMILES | growth inhibition (GI) (A-375 [4]) | further results
– | – | – | – | 398 | – | – | -7 | 1 | inactive | inactive | – | – | 3.9 | Cc1cc(NS(=O)(=O)c2ccccc2)c(Nc2ccc(I)cc2F)n(C)c1=O | Active | inhibition (INH) (A-375 [15]): 20%; inhibition [16]: Active; Activity [17]: inactive; inhibition [19]: Active; inhibition (A-375 [20]): Active; inhibition [21]: Active
– | – | – | – | – | – | – | – | – | – | – | – | 0.74 | – | CC(=O)Nc1cccc(-n2c(=O)n(C3CC3)c(=O)c3c(Nc4ccc(I)cc4F)n(C)c(=O)c(C)c32)c1 [TRAMETINIB] | – | –
